Results reported in US12539320B2, “Composition for improving eyesight” (South China Agricultural University, priority 2022, dated 2026).

Assays:
Type in all cases: in vivo, BALB/c mice
Details in all cases: 5 μL dripped into conjunctival sac 2 times a day for 15 days, mean (SD in next cell)
mice with xerophthalmia [1] = assay: Measurement of breakup time of tear film (fluorescein sodium, slit lamp) in xerophthalmia mice
Experimental: (§1) 1.1 Test animals: 100 SPF-grade 8-week-old healthy BALB/c mice, each weighed 18-22 g, were selected, and anterior segment and fundus of the eyes were not abnormal.
(§2) 1.2. Establishment of animal model: 90 mice were selected to induce a model of xerophthalmia. 5 μL of 2 g/L of a benzalkonium chloride solution was dripped into conjunctival sac of the eyes of 90 mice for 2 times a day and continuously for 15 days. After the modeling was success, the mice were randomly divided into 9 groups with 10 mice in each group.
(§3) 1.3. […] After 15 days, the secretion amount of tear, breakup time of a tear film, and the expression amount of conjunctival epithelial mucin MUC5AC were measured for the mice in each group.
(2) Measurement of breakup time of tear film: 1 μL of 10 g/L of a fluorescein sodium solution was dripped into the conjunctival sac of the mouse, after the mouse blinked, the eyes were artificially kept in a normal opening state, and time for a tear film to generate the 1st black spot (breaking point) was observed and recorded under a cobalt blue light of a slit lamp.

[2] = test system: conjunctival epithelial mucin MUC5AC; assay: Expression amount of conjunctival epithelial mucin MUC5AC by Western Blot in xerophthalmia mice
Experimental: as §1, §2, §3
(3) Measurement of expression amount of conjunctival epithelial mucin MUC5AC: an expression level of the mucin MUC5AC in the conjunctival epithelial cells of the mouse was detected by Western Blot.

mice with xerophthalmia [3] = assay: Measurement of secretion amount of tear (phenol red cotton thread) in benzalkonium chloride-induced xerophthalmia mice
Experimental: as §1, §2, §3
(1) Measurement of secretion amount of tear: a phenol red cotton thread was placed in the conjunctival sac of the mouse at about ⅓ outside for 1 min and a length of a red part of the phenol red cotton thread was measured.

## lutein ester [Comparative example 3]
Mice with xerophthalmia [1]
  Breakup time of tear film: 36.72 s
[2]
  Expression amount of conjunctival epithelial mucin MUC5AC: 0.38 ng/mg
Mice with xerophthalmia [3]
  Secretion amount of tear: 6.46 mm
